Results from patent US20090093454A1, “Chemical Compounds” (priority 2005, published 2009).

System: T-tropic HIV
Assay: not given
Conditions: patients that are dual tropic or with only the T-tropic form of the virus; cited from earlier work
In the case of `c1cc(CN2CCCNCCNCCCNCC2)ccc1CN1CCCNCCNCCCNCC1` [AMD-3100], the “T-tropic HIV viral load” value is given as “significantly reduce”.

System: HIV-1
Assay: HIV infectivity assay (Table 2, strain not given)
Type: cell-based
Conditions: Human immunodeficiency virus 1, read-out: Activity Level
Outline: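 HOS cells expressing hCXCR4/hCCR5/hCD4 with HIV-LTR-luciferase, pre-treated 1 h with compound at 37 °C, then infected with HIV-1 Ba-L or IIIB (~2 million RLU/well) for 96 h. Infection read by Steady-Glo luciferase; cytotoxicity in uninfected cultures by CellTiter-Glo.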
`NCCCCn1c(CN2CC[C@@H]3CCc4cccnc4[C@H]32)nc2ccccc21` (racemic) [Example 130, (trans) 4-[2-(2,3,3a,4,5,9b-hexahydro-1H-pyrrolo[3,2-h]quinolin-1-ylmethyl)-1H-benzimidazol-1-yl]-1-butanamine] showed an IC50 of 100 to 500 nM.
`COCCN1CCN(c2cccc3nc(CN4CCC[C@H]5CCc6cccnc6[C@H]54)cn23)CC1` [Example 99, (4aR,10bS)-1-[(5-{4-[2-(methyloxy)ethyl]-1-piperazinyl}imidazo[1,2-a]pyridin-2-yl)methyl]-1,2,3,4,4a,5,6,10b-octahydro-1,10-phenanthroline] gave an IC50 of less than 100 nM.
`c1cnc2c(c1)CC[C@@H]1CCCN(Cc3cn4c(N[C@H]5CCCNC5)cccc4n3)[C@H]21` [Example 112, 2-[(4aR,10bS)-3,4,4a,5,6,10b-hexahydro-1,10-phenanthrolin-1(2H)-ylmethyl]-N-[(3S)-3-piperidinyl]imidazo[1,2-a]pyridin-5-amine] gave an IC50 of less than 100 nM.
Molecule `C[C@@H]1CN(c2cccc3nc(CN4CCC[C@H]5CCc6cccnc6[C@H]54)cn23)C[C@H](C)N1` [Example 77, (4aR,10bS)-1-({5-[(3R,5S)-3,5-dimethyl-1-piperazinyl]imidazo[1,2-a]pyridin-2-yl}methyl)-1,2,3,4,4a,5,6,10b-octahydro-1,10-phenanthroline] has an IC50 of less than 100 nM.
For `c1cnc2c(c1)CC[C@@H]1CCCN(Cc3nc4ccccc4n3C[C@H]3CCCNC3)[C@H]21` [Example 64, (4aR,10bS)-1-({1-[(3S)-3-piperidinylmethyl]-1H-benzimidazol-2-yl}methyl)-1,2,3,4,4a,5,6,10b-octahydro-1,10-phenanthroline], the IC50 was less than 100 nM.
`c1cnc2c(c1)CC[C@@H]1CCCN(Cc3nc4ccccc4n3CCCN3CCOCC3)[C@H]21` (racemic) [Example 44, (cis) 1-({1-[3-(4-morpholinyl)propyl]-1H-benzimidazol-2-yl}methyl)-1,2,3,4,4a,5,6,10b-octahydro-1,10-phenanthroline] showed an IC50 of 100 to 500 nM.
`NCC1CCN(c2cccc3nc(CN4CCC[C@H]5CCc6cccnc6[C@H]54)cn23)CC1` [Example 85, [(1-{2-[(4aR,10bS)-3,4,4a,5,6,10b-hexahydro-1,10-phenanthrolin-1(2H)-ylmethyl]imidazo[1,2-a]pyridin-5-yl}-4-piperidinyl)methyl]amine] showed an IC50 of less than 100 nM.
In the case of `NCCCCn1c(CN2CCC[C@H]3CCc4cccnc4[C@H]32)nc2ccccc21` (racemic) [Example 38, (cis) 4-[2-(3,4,4a,5,6,10b-hexahydro-1,10-phenanthrolin-1(2H)-ylmethyl)-1H-benzimidazol-1-yl]-1-butanamine], the IC50 is reported as 100 to 500 nM.
In the case of `OCCN1CCN(c2cccc3nc(CN4CCC[C@H]5CCc6cccnc6[C@H]54)cn23)CC1` [Example 103, 2-(4-{2-[(4aR,10bS)-3,4,4a,5,6,10b-hexahydro-1,10-phenanthrolin-1(2H)-ylmethyl]imidazo[1,2-a]pyridin-5-yl}-1-piperazinyl)ethanol], the IC50 is reported as less than 100 nM.
With `C[C@H]1CCCN1c1cccc2nc(CN3CCC[C@H]4CCc5cccnc5[C@H]43)cn12` [Example 111, (4aR,10bS)-1-({5-[(2S)-2-methyl-1-pyrrolidinyl]imidazo[1,2-a]pyridin-2-yl}methyl)-1,2,3,4,4a,5,6,10b-octahydro-1,10-phenanthroline] the IC50 was 100 to 500 nM.
